Reference: patent US8071764B2, “Compounds of reverse turn mimetics and the use thereof (2)” (Choongwae Pharma Corporation, priority 2008, dated 2011)
Where two headings read alike, the source gives them in different places.

Assays:
[1] = test system: MV-4-11 cells; experiment: Cell growth inhibition assay on AML cancer cells; type: cell-based; settings: Homo sapiens, MV4-11, 72 hours
Description: Cell growth Inhibition assay was performed to investigate the rate of inhibition of cell proliferation by the test compounds. MV-4-11 (human, Acute Myeloid Leukemia cell line) cells were cultured in Iscove's modified Dulbecco's medium (IMDM) including 10% fetal bovine serum (FBS), 1× penicillin/streptomycin (10,000 units/ml Penicillin, […] Streptomycin in 0.85% NaCl). MV-4-11 cells were harvested with IMDM medium and 5×10^4 cells/well were transferred to each well of 96 well culture plates (Nunc, #167008). The test compounds were treated with the serial dilution and duplicated for each concentration. For the serial dilution, the test compounds were repeatedly diluted with the same volume of media onto 96-well assay block (costar, #3956). After the dilution, each compound was added to each well. The background absorbance was also measured during the test compounds treatment by adding the IMDM media in replacement of test compound to the negative control plate. The plates were incubated for 3 days (72 hours) at 37° C. in the humidified incubator containing 5% CO2. On the last day, 20 μL of CellTiter 96 Aqueous One Solution (Promega #G3581) was added to the culture in each well and the plates were incubated for a few hours at 37° C. in the humidified incubator containing 5% CO2. After the incubation, the absorbance of each cell was measured at 490 nm using an EnVision (Perkinelmer, USA). The […] values were calculated using a Prism 3.0 program.

[2] = target: T1, cDNA-expressed human hepatic CYP3A4 (Homo sapiens, UniProt P08684); experiment: P450 CYP3A4 inhibitory activity screening (fluorescent assay, BFC substrate); type: in vitro ADME
T1 construct: purchased BD Gentest 456202
T1 sequence (P08684 whole entry): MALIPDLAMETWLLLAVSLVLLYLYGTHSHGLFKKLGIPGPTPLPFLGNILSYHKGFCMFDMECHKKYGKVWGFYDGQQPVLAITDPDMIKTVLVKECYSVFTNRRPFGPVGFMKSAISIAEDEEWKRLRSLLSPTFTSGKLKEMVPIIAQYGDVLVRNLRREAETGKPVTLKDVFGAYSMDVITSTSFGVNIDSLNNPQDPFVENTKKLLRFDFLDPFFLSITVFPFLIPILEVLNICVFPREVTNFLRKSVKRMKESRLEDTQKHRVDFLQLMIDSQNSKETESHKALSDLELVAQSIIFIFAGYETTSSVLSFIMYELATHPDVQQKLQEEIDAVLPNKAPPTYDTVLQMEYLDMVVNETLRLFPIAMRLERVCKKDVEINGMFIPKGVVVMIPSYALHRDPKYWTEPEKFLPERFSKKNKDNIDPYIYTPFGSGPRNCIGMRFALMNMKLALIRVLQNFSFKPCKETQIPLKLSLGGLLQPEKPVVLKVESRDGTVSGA
Description: Assay was conducted in a 200 μL volume in 96-well microtiter plates using cDNA-expressed human hepatic CYP3A4 (supersome, BD Gentest™ #456202). 7-Benzyloxy-4-trifluoromethyl-coumarin (BFC) was used as a substrate for CYP3A4. Test articles and substrate BFC were dissolved in 100% acetonitrile. The final volume of acetonitrile in the incubation mixture was less than 1% (volume/volume). Potassium phosphate buffer (pH 7.4, final concentration 0.1 M), MgCl2 (final concentration 8.3 mM), EDTA (final concentration 1.67 mM), a test article stock solution, a CYP3A4 supersome and NADPH (final concentration 0.25 mM) were added to each well. The reaction was initiated by the addition of substrate (BFC, final concentration 30 µM) after a 10 min pre-incubation at 37° C. After 10 min incubation at 37° C., the reaction was terminated by the addition of […] of acetonitrile:0.5 M Tris-base=4:1 (volume/volume). Thereafter, Fluorescent signal was measured using a fluorometer. BFC metabolite, 7-hydroxy-4-trifluoromethyl-coumarin, was measured using an excitation wavelength of 409 nm and an emission wavelength of 530 nm.

[3] = test system: Wnt signaling; experiment: TopFlash reporter gene bioassay in SW480 cells; type: cell-based; settings: Homo sapiens
Description: Inhibition activity against Wnt signaling was measured by the TopFlash reporter. The lower IC50 value means the higher inhibition activity.
TopFlash reporter gene Bioassay for the measurement of IC50 against SW480 cells
The test compound (Compound A) used in this example was prepared in Preparation Example 2. SW480 cells were transfected with the usage of Superfect™ transfect reagent (Qiagen, 301307). Cells were trypsinized briefly 1 day before transfection and plated on 6 well plate (5×10^5 cells/well) so that they were 50-80% confluent on the day of transfection.
Four microgram (TopFlash) and one microgram (pRL-null) of DNAs were diluted in 150 μl of serum-free medium, and 30 μl of Superfect™ transfect reagent was added. The DNA-Superfect mixture was incubated at room temperature for 15 min, and then, 1 ml of 10% FBS DMEM was added to this complex for an additional 3 hours of incubation. While complexes were forming, cells were washed with PBS twice without antibiotics.
The DNA-Superfect™ transfect reagent complexes were applied to the cells before incubating at 37° C. at 5% CO2 for 3 hours. After incubation, recovery medium with 10% FBS was added to bring the final volume to 1.18 ml. After 3 hours incubation, the cells were harvested and reseeded to a 96 well plate (3×10^4 cells/well). After overnight incubation at 37° C. at 5% CO2, the cells were treated with Compound A for 24 hours. […]

[4] = MV-4-11 cells, FIG. 4, read-out: GI50
[5] = MV-4-11 AML cells, read-out: MV-4-11, GI50
[6] = fluorescent assay, read-out: CYP3A4 inhibition, IC50 (μM) fluorescent assay

Work on `C=CCN1CC(=O)N2[C@@H](Cc3ccc(O)cc3)C(=O)N(Cc3cccc4c3nnn4CC(N)=O)C[C@@H]2N1C(=O)NCc1ccccc1` [Compound C] yielded a GI50 [1, 4] of 560 nM.

Molecule `C=CCN1CC(=O)N2[C@@H](Cc3ccc(O)cc3)C(=O)N(Cc3cccc4c3nnn4CC(=O)NCc3ccncc3)C[C@@H]2N1C(=O)NCc1ccccc1` [compound 14] has a GI50 [1, 5] of 600 nM.

With `C=CCN1CC(=O)N2[C@@H](Cc3ccc(O)cc3)C(=O)N(Cc3cccc4nnn(CC(=O)N5CCN(C)CC5)c34)C[C@@H]2N1C(=O)NCc1ccccc1` [compound 5] the GI50 [1, 5] was 2970 nM.

With `C=CCN1CC(=O)N2[C@@H](Cc3ccc(O)cc3)C(=O)N(Cc3cccc4nnn(CC(=O)N(C)C)c34)C[C@@H]2N1C(=O)NCc1ccccc1` [compound 7] the IC50 [2, 6] was 41.1 µM.

`C=CCN1CC(=O)N2[C@@H](Cc3ccc(O)cc3)C(=O)N(Cc3ccc4nn(C)nc4c3)C[C@@H]2N1C(=O)NCc1ccccc1` [compound 1] showed an IC50 ([3]; SW480, TopFlash reporter gene assay, read-out: RGA, IC50 (μM) TopF) of 1 ± 0.25 µM, an IC50 [2, 6] of 19.2 µM and a GI50 [1, 5] of 260 nM.

`C=CCN1CC(=O)N2[C@@H](Cc3ccc(O)cc3)C(=O)N(Cc3cccc4nnn(CC(=O)OCC)c34)C[C@@H]2N1C(=O)NCc1ccccc1` [compound 3] gave a GI50 [1, 5] of 710 nM.

Molecule `C=CCN1CC(=O)N2[C@@H](Cc3ccc(O)cc3)C(=O)N(Cc3cccc4nnn(CC(=O)NCCOC)c34)C[C@@H]2N1C(=O)NCc1ccccc1` [compound 8] has an IC50 [2, 6] of 46.9 µM.

With `C=CCN1CC(=O)N2[C@@H](Cc3ccc(O)cc3)C(=O)N(Cc3cccc4c3nnn4CC(=O)N3CCOCC3)C[C@@H]2N1C(=O)NCc1ccccc1` [compound 7] the GI50 [1, 5] was 370 nM.

`C=CCN1CC(=O)N2[C@@H](Cc3ccc(O)cc3)C(=O)N(Cc3cccc4c3nnn4CC(=O)NC)C[C@@H]2N1C(=O)NCc1ccccc1` [compound 13] was tested, and the IC50 [2, 6] was 32.4 µM.

In the case of `C=CCN1CC(=O)N2[C@@H](Cc3ccc(O)cc3)C(=O)N(Cc3cccc4c3nnn4CC(=O)OCC)C[C@@H]2N1C(=O)NCc1ccccc1` [compound 6], the GI50 [1, 5] is reported as 650 nM.

In the case of `C=CCN1CC(=O)N2[C@@H](Cc3ccc(O)cc3)C(=O)N(Cc3cccc4nnn(CC(=O)N(C)C)c34)C[C@@H]2N1C(=O)NCc1ccccc1` [compound 8], the GI50 [1, 5] is reported as 1920 nM.

For `C=CCN1CC(=O)N2[C@@H](Cc3ccc(O)cc3)C(=O)N(Cc3cccc4nnn(CC(N)=O)c34)C[C@@H]2N1C(=O)NCc1ccccc1` [compound 13], the GI50 [1, 5] was 3270 nM.

Molecule `C=CCN1CC(=O)N2[C@@H](Cc3ccc(O)cc3)C(=O)N(Cc3cccc4c3nnn4CC(=O)NC)C[C@@H]2N1C(=O)NCc1ccccc1` [compound 15] has a GI50 [1, 5] of 180 nM.

`C=CCN1CC(=O)N2[C@@H](Cc3ccc(O)cc3)C(=O)N(Cc3cccc4nnn(CC(N)=O)c34)C[C@@H]2N1C(=O)NCc1ccccc1` [compound 12] showed an IC50 [2, 6] of 33.2 µM.

With `C=CCN1CC(=O)N2[C@@H](Cc3ccc(O)cc3)C(=O)N(Cc3cccc4c3nnn4CC(=O)OCC)C[C@@H]2N1C(=O)NCc1ccccc1` [compound 5] the IC50 [2, 6] was 7.4 µM.

With `C=CCN1CC(=O)N2[C@@H](Cc3ccc(O)cc3)C(=O)N(Cc3cccc4c3nnn4CC(=O)N(C)C)C[C@@H]2N1C(=O)NCc1ccccc1` [compound 9] the IC50 [2, 6] was 38 µM.

`C=CCN1CC(=O)N2[C@@H](Cc3ccc(O)cc3)C(=O)N(Cc3cccc4nnn(CC(=O)N5CCOCC5)c34)C[C@@H]2N1C(=O)NCc1ccccc1` [compound 4] gave an IC50 [2, 6] of 6.23 µM and a GI50 [1, 5] of 930 nM.

Molecule `C=CCN1CC(=O)N2[C@@H](Cc3ccc(O)cc3)C(=O)N(Cc3cccc4nnn(CC(=O)O)c34)C[C@@H]2N1C(=O)NCc1ccccc1` [compound 3] has an IC50 [2, 6] of over 50 µM.

In the case of `C=CCN1CC(=O)N2[C@@H](Cc3ccc(O)cc3)C(=O)N(Cc3cccc4c3nnn4CC(=O)O)C[C@@H]2N1C(=O)NCc1ccccc1` [compound 6], the IC50 [2, 6] is reported as over 50 µM.

Work on `C=CCN1CC(=O)N2[C@@H](Cc3ccc(O)cc3)C(=O)N(Cc3cccc4c3nnn4CC(N)=O)C[C@@H]2N1C(=O)NCc1ccccc1` [compound 12] yielded a GI50 [1, 5] of 560 nM.

Work on `C=CCN1CC(=O)N2[C@@H](Cc3ccc(O)cc3)C(=O)N(Cc3cccc4nnn(CC(=O)NCCOC)c34)C[C@@H]2N1C(=O)NCc1ccccc1` [compound 9] yielded a GI50 [1, 5] of 1850 nM.

`C=CCN1CC(=O)N2[C@@H](Cc3ccc(O)cc3)C(=O)N(Cc3ccc4nn(C)nc4c3)C[C@@H]2N1C(=O)NCc1ccccc1` [Compound A, 2-allyl-6-(4-hydroxy-benzyl)-8-(2-methyl-2H-benzotriazol-5-ylmethyl)-4,7-dioxo-hexahydro-pyrazino[2,1-c][1,2,4]triazine-1-carboxylic acid benzylamide] was tested, and the IC50 ([3]; SW480 cells, TopFlash, 24 hours treatment, FIG. 3, read-out: IC50 of Compound A for SW480 cells) was 1 ± 0.254 µM, the “inhibition of a CYP3A4 enzyme (in words)” value ([2]; FIG. 2) was “weak inhibition” and the IC50 ([2]; Table 6, FIG. 2, read-out: IC50 against CYP3A4 activity) was 19.2 µM. For the same molecule, the GI50 [1, 4] was 262 nM.
